Laboratory results reported in publication PMC8465649, “Semaphorin 3A—Glycosaminoglycans Interaction as Therapeutic Target for Axonal Regeneration” (Pharmaceuticals, 2021).
Ends that are not written are not given here.

How the values were obtained:
[1] = NMR competition (WaterLOGSY / spin-lock filtered 1H): displacement of FS2/FS3 peptides from heparin agarose resin; format: binding; details: pH 7.5; for displacement of FS3 peptide from heparin agarose resin: spin-lock filtered 1D 1H NMR, 1 mM peptide, 1 mM peptoid
Experimental: NMR competition experiments involved the acquisition of 1D-^1H WaterLOGSY or spin-lock filtered NMR spectra. Thus, FS2 peptide is displaced from heparin agarose resin by CSIC02 (1:1 peptoid/FS2, both 1 mM), but not by CSIC03 (Figure S15). […] We reasoned that if CSIC02 was able to interact with GAG and displace FS2/FS3 basic peptides, it may also interfere with SCTWT–heparin interaction. To investigate if CSIC02 could displace SCTWT from heparin dp14 and to define the SCTWT residues affected, 2D NMR ^1H-^15N HSQC CSP experiments were used. Figure 8a illustrates the chemical shift effects of CSIC02 addition to a sample of SCTWT containing dp14 heparin. […] In Figure 8b, we display the chemical shift perturbation of SCTWT NMR spectra in the presence of dp14 and CSIC02. Thus, as the two CSP plots in Figure 4b and Figure 8b were calculated using as reference SCTWT alone in solution, we can compare them directly. […] Moreover, splitting of signals for some residues (R733, R734, and Q735 in the first GAG-binding region) was observed (Figure 8c). This observation is compatible with the presence of different species in slow chemical exchange in solution, with partial detachment of SCTWT from heparin. The amount of CSIC02 used in these experiments can be rationalized considering that the SCTWT has ca. 12 positive charges at neutral pH (Figure S18), while CSIC02 is tricationic. Since the binding is mediated by ionic polar interactions, a large excess of CSIC02 is needed to counterbalance the SCTWT-dp14 binding.
Next, 1D ^1H T1ρ relaxation filtered and WaterLOGSY NMR experiments were acquired at 25 °C on a 500-MHz spectrometer (Varian Inova; Agilent Technologies, Santa Clara, CA, USA) equipped with an AutoX inverse double-resonance probe with a z-shielded pulsed-field gradient coil. The samples were prepared in a 5-mm Wilmad NMR 528-PP tubes with 10 mM Tris-d11 (for peptide/GAG samples) and 150 mM NaCl dissolved in 90% H2O/10% D2O at pH 7.5. All spectra were obtained with a sweep width of 8 kHz and 16,384 acquired data points. The experiments were recorded using the standard pulse sequence in the (WLOGSY_ES) Chempack library, with excitation sculpting to suppress water resonances. For Water-LOGSY experiments, the first water-selective 180° pulse was 25 ms long. The spectra were acquired with 1200 transients and a spin-lock pulse of 50 ms at 3.7 kHz. To phase Water-LOGSY spectra correctly, it is necessary to use an internal reference compound. In our case, the reference is the residual ethanol absorbed/bonded in heparin-agarose resin (this interaction was previously confirmed with T1ρ filtered experiments), which appears as a positively phased signal. […]

[2] = Potentiometric titration (protonation state); format: physicochemical; details: 25 °C, 0.15 M NaCl
Experimental: UV absorbance was measured using a SpectraMax M5 spectrophotometer (Molecular Devices, Sunnyvale, CA, USA). The experiments were performed with a 10 μM methylene blue (MB) solution in 5 mM Tris-HCl buffer at pH 7.5, to which increasing amounts of heparin were added to saturation of the MB dye. For the competition assays, solutions of MB and heparin at fixed concentrations were titrated with increasing amounts of SICHI or CSIC02–04 peptoids. Then, the relative increase in absorbance at 665 nm, due to release of MB from the MB–heparin complex when adding either SICHI or CSIC02–04 to the cuvette, can be plotted vs. the charge ratio considering their respective concentrations and that all the peptoids have three positive charges, and heparin has four negative charges per disaccharide unit. With this information, the charge excess for 50% of displacement of the MB dye (CE50) for each compound can be calculated for comparison. Potentiometric titrations were carried out in a reaction vessel thermostated with a water bath at 25.0 ± 0.1 °C under nitrogen atmosphere, and 0.15 M NaCl was used as the supporting electrolyte. The titrant was delivered by a precision microburette. The potentiometric measurements were made with a pH-mV meter. The reference electrode was an Ag/AgCl electrode in saturated KCl solution. The acquisition of the emf data was performed with the computer program Tiamo 2.3.1. […]

Nrp1 = system: Nrp1; set-up: method as in PMID 27028639; details: cited from earlier work
[3] = system: Sema3A chemorepulsive activity; set-up: method as in PMID 19615921; details: cited from earlier work
Sema3A = system: Sema3A; set-up: method as in PMID 27028639; details: cited from earlier work
[4] = SPR binding to immobilized biotinylated heparin; details: Table S3
Experimental: (§1) The interaction between Sema3A basic tail and GAGs was analyzed using several methods: chromatographic elution as a function of NaCl concentration based on affinity to a heparin sepharose column, surface plasmon resonance (SPR), NMR [52], and molecular dynamics simulations. Firstly, we observed that SCTWT binds to a heparin-Sepharose column and the protein is only released at about 1M NaCl (>50% of buffer B, Figure 3c), similar to the widely reported antithrombin–heparin interaction, indicating a SCTWT-heparin high-affinity, in the 10^−7–10^−9 M range [54]. Next, SPR measurements were performed to characterize protein–heparin binding kinetics. […]
All SPR experiments were performed on a Biacore T-100 instrument (Cytiva, formally GE Healthcare, Marlborough, MA, USA) in HBS-T buffer (10 mM HEPES, 150 mM NaCl, 0.05% Tween-20, pH 7.5) at 25 °C. […] The SPR experiments were performed in duplicate and the dissociation constant (Kd) values and binding levels are expressed as the mean and standard deviation from the individual experiments. […]

[5] = Heparin affinity chromatography (NaCl gradient elution); format: binding
Experimental: Figure 3 SPR sensorgrams of increasing amounts (0 to 1 μM) of the SCTWT construct flown over (HBS-T buffer) (a) immobilized biotinylated heparin (350 RU) (b) CD Spectra of 5 μM Sema3A C-terminal region in the absence (blue) and the presence of 1 μM UFH (orange), measured at pH 5.5 in 10 mM NaP. […] SCTWT was loaded onto a HiTrap Heparin column equilibrated with […] (pH 7.5), and eluted with a linear gradient to 2 M NaCl. Left ordinate axis, absorbance; righ ordinate axis, % NaCl (% B).
A prepacked 1-mL HiTrap Heparin HP affinity column (GE Healthcare) was used on a AKTA purifier system to perform heparin affinity chromatography. Then, 100 μL of SCT samples at ~100 μM were injected and run at 1 mL/min in a linear gradient with buffer A = 10 mM Tris-HCl, pH = 7.5 and buffer B = 10 mM Tris-HCl, 2M NaCl, pH = 7.5.

[6] = SPR binding to immobilized biotinylated CS-A
Experimental: as §1
All SPR experiments were performed on a Biacore T-100 instrument (Cytiva, formally GE Healthcare, Marlborough, MA, USA) in HBS-T buffer (10 mM HEPES, 150 mM NaCl, 0.05% Tween-20, pH 7.5) at 25 °C. […] The SPR experiments were performed in duplicate and the dissociation constant (Kd) values and binding levels are expressed as the mean and standard deviation from the individual experiments.

[7] = molecular target: the molecule itself; assay: 1H-15N NMR spectra; 1H-15N NMR spectra of LCTWT acquired without and with reducing agent TCEP; monomer and dimer

## CCN(CC)CCNCC(=O)N(CCN1CCCC1)CC(=O)NCCC1CCCN1C (stereo not drawn) [CSIC03]
[1]; WaterLOGSY, 1:1 peptoid/FS2, both 1 mM
  displacement of FS2 peptide from heparin agarose resin: not
[1]
  displacement of FS3 peptide from heparin agarose resin: incapable to displace

## CCN(CC)CCN(CC(=O)N(CCN1CCCC1)CC(=O)NCCC1CCCN1C)C(=O)OCc1ccccc1 (stereo not drawn) [CSIC04]
[1]
  displacement of FS3 peptide from heparin agarose resin: incapable to displace

## CCN(CC)CCNCC(=O)N(CCN1CCCC1)CC(=O)N(CCC1CCCN1C)CC(N)=O (stereo not drawn) [SICHI]
[2]
  protonation state at neutral pH: triprotonated
Nrp1
  binding to Nrp1: neither Sema3A or Nrp1 bind
[3]
  in vitro effect on Sema3A chemorepulsive activity: inhibition
Sema3A
  binding to Sema3A: neither Sema3A or Nrp1 bind

## FS2: Sema3A C-terminal peptide 725-736, VWKRDRKQRRQR
[4]
  fold stronger affinity to heparin compared to NFS3 peptide: 60 fold

## LCTWT: recombinant Sema3A C-terminal construct 716-771 incorporating the cysteine (NTMDEFCEQVWKRDRKQRRQRPGHTPGNSNKWKHLQENKKGRNRRTHEFERAPRSV; also: post-translational modification of the N-terminus, kind not given here)
[5]; 5 mM DTT
  NaCl concentration at elution under reducing conditions: ~ 0.92 M NaCl
[5]; linear gradient to 2 M NaCl, Tris-HCl pH 7.5
  NaCl concentration at elution peak (single or major peak): ~ 1.12 M NaCl
[5]; linear gradient to 2 M NaCl, minor peak (monomeric form)
  NaCl concentration at minor elution peak: ~ 0.92 M NaCl

## SCTRR/QH: SCT construct bearing two mutations, R730Q and R733H (VWKRDQKQHRQRPGHTPGNSNKWKHLQENKKGRNRRTHEFERAPRSV; UniProt Q14563 725-771, looked up, variant R730Q R733H)
[5]; heparin affinity chromatography
  elution of the mutated protein relative to SCTWT: slightly earlier elution
[6]; immobilized biotinylated CS-A
  binding to CS-A: completely abrogated

## SCTWT: recombinant Sema3A C-terminal polybasic tail construct, residues 725–771 (VWKRDRKQRRQRPGHTPGNSNKWKHLQENKKGRNRRTHEFERAPRSV; UniProt Q14563 725-771, looked up, fragment)
[6]; comparison of heparin and CS-A chips
  affinity for heparin versus CS-A: higher affinity to heparin than to CS-A

B1: recombinant Sema3A C-terminal construct incorporating the cysteine (LCTWT, 716-771) (domain or fragment, human, UniProt Q14563 716-771, looked up)
chain: NTMDEFCEQVWKRDRKQRRQRPGHTPGNSNKWKHLQENKKGRNRRTHEFERAPRSV
modifications: also: post-translational modification of the N-terminus, kind not given here
notes: Semaphorin 3A (Sema3A), human, C-terminal region 716-771 with the cysteine (Cys722 as printed) between the Ig domain and the basic tail; The methods say that the SCT constructs were made without any fusion tag in E. coli BL21 (DE3) and purified by cation exchange and reverse phase; source: recombinant
[7]
  binding result: binds
